What was measured:
[1] = Clearance in Sprague-Dawley rat at 2 umol/kg, iv; type: ADME, organism-based; details: in vivo
[2] = target: T1, Gastrin/cholecystokinin type B receptor (Homo sapiens, UniProt P32239)
T1 sequence (P32239 whole entry): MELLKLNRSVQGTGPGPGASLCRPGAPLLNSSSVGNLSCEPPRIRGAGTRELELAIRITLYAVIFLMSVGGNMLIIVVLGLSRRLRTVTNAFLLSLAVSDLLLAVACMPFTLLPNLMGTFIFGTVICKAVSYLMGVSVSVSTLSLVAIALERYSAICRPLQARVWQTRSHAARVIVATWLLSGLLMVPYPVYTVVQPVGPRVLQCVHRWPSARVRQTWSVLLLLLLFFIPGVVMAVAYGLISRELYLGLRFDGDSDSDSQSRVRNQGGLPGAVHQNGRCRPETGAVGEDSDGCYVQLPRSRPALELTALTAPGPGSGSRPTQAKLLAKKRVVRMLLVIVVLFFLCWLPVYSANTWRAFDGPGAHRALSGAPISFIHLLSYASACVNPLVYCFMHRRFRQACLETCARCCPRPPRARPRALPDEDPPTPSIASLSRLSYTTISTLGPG
Description: Displacement of [125I]CCK-8S from human CCK2R

[3] = Half life in Sprague-Dawley rat at 2 umol/kg, iv; type: ADME, organism-based; details: in vivo
[4] = target: T2, Cholecystokinin receptor type A (Homo sapiens, UniProt P32238)
T2 sequence (P32238 whole entry): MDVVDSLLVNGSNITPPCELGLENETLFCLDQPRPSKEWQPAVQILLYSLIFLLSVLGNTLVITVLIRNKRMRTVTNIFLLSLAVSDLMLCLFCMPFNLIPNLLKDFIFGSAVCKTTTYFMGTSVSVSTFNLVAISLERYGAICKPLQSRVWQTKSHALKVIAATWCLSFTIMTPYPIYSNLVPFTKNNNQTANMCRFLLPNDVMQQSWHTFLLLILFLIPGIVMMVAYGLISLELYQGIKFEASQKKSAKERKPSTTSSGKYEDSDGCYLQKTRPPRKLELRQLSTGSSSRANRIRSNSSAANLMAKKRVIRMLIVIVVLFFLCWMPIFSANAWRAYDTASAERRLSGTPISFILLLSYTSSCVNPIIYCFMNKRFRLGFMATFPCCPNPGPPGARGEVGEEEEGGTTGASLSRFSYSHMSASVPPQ
Description: Displacement of [125I]CCK-8S from human CCK1R

[5] = Stability in rat liver microsome after 30 mins; type: ADME; details: liver microsomes, read-out: Stability
[6] = Stability in human liver microsome after 30 mins; type: ADME; details: liver microsomes, read-out: Stability
[7] = Stability in human liver S9 fraction after 15 mins; type: ADME; details: read-out: Stability
[8] = Stability in dog liver S9 fraction after 15 mins; type: ADME, Canis lupus familiaris; details: read-out: Stability
[9] = Stability in human liver microsome after 15 mins; type: ADME; details: liver microsomes, read-out: Stability
[10] = Stability in rat liver S9 fraction after 30 mins; type: ADME; details: read-out: Stability
Caco-2 [11] = experiment: Apparent permeability from apical to basolateral side of Caco-2 cells; type: ADME, cell-based; details: human
[12] = target: T3, Cholecystokinin receptor type A (Cavia porcellus) (UniProt Q63931); experiment: Antagonizing effect on CCK-8S-stimulated guinea pig gall bladder smooth muscle contraction by Schild analysis; type: functional, tissue-based; details: Muscle tissue
T3 sequence (whole entry): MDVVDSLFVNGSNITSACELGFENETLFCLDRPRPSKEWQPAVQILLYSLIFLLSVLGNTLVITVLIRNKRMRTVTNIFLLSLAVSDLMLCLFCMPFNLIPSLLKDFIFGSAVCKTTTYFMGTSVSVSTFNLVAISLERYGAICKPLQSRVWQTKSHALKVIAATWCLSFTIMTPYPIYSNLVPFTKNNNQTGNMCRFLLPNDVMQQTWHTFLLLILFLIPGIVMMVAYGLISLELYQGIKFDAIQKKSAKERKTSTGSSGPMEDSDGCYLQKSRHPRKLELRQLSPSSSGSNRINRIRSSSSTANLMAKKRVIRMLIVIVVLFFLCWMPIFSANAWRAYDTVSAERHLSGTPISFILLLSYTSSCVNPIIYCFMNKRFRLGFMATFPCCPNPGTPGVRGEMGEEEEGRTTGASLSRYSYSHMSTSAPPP

[13] = Dissociation constant, pKa of the compound; type: physicochemical
[14] = Stability in rat liver S9 fraction after 15 mins; type: ADME; details: read-out: Stability
Caco-2 [15] = experiment: Apparent permeability from basolateral to apical side of Caco-2 cells; type: ADME, cell-based; details: human
[16] = Binding to alpha-glycoprotein; type: ADME; details: human, read-out: PPB (converted)
[17] = Stability in dog liver S9 fraction after 30 mins; type: ADME, Canis lupus familiaris; details: read-out: Stability
[18] = Stability in human liver S9 fraction after 30 mins; type: ADME; details: read-out: Stability
[19] = Oral bioavailability in Sprague-Dawley rat at 2 umol/kg, po; type: ADME, organism-based; details: in vivo
[20] = Partition coefficient, log D at pH 7.4; type: physicochemical; details: octanol/water
Cavia porcellus = species: Cavia porcellus; experiment: Antagonizing effect on penta gastrin-stimulated guinea pig gastric smooth muscle contraction by Schild analysis; type: functional, Muscle tissue
[21] = Half life in Beagle dog at 2 umol/kg, iv; type: ADME, organism-based, Canis lupus familiaris; details: in vivo
[22] = Oral bioavailability in Beagle dog at 20 umol/kg, po; type: ADME, organism-based, Canis lupus familiaris; details: in vivo
Rattus norvegicus [23] = experiment: Inhibition of pentagastrin-stimulated gastric acid secretion in po dosed conscious gastric fistula Sprague-Dawley rat; type: functional; details: Stomach
[24] = Clearance in Beagle dog at 2 umol/kg, iv; type: ADME, organism-based, Canis lupus familiaris; details: in vivo
Rattus norvegicus [25] = species: Rattus norvegicus; experiment: Plasma concentration in rat; type: ADME, organism-based; details: in vivo
Rattus norvegicus [26] = experiment: Inhibition of pentagastrin-stimulated gastric acid secretion in iv dosed anesthetized rat measured as increase in pH; type: functional, Stomach

SMILES | Ki ([2]; read-out: Log Ki (converted)) [µM] | Ki ([4]; read-out: Ki) [µM] | further results
O=C(c1cc(Cl)ccc1NS(=O)(=O)c1cccc2nsnc12)N1CCCCC1 | 0.398 | – | clearance [1]: 7 mL/min/kg; half-life [3]: 21 min; Ki ([4]; read-out: Log Ki (converted)): > 10 µM; remaining at 0.5 h [5]: 9%; remaining at 0.5 h [6]: 16%
O=C(c1ccc(Br)cc1NS(=O)(=O)c1cccc2cnccc12)N1CCCCC1 | – | > 10 | Ki ([2]; read-out: Ki): > 10 µM
O=C(c1ccc(Br)cc1NS(=O)(=O)c1cccc2ccccc12)N1CCCCC1 | – | > 10 | Ki ([2]; read-out: Ki): > 10 µM
O=C(c1ccc(Cl)cc1NS(=O)(=O)c1cccc2cccnc12)N1CCCCC1 | – | > 10 | Ki ([2]; read-out: Ki): > 10 µM
O=C(c1ccccc1NS(=O)(=O)c1cc2ccccc2[nH]1)N1CCCCC1 | – | – | Ki ([2]; read-out: Ki): > 10 µM; Ki ([4]; read-out: Log Ki (converted)): 7.94 µM
O=C(c1ccc(Br)cc1NS(=O)(=O)c1ccc(Br)c2nsnc12)N1CCCCC1 | 0.158 | > 10 | –
COc1cc(C(=O)N2CCCCC2)c(NS(=O)(=O)c2cccc3nsnc23)cc1Cl | 0.501 | > 10 | –
COc1ccc(C(=O)N2CCCCC2)c(NS(=O)(=O)c2cccc3nsnc23)c1 | 0.631 | > 10 | –
O=C(c1ccc(C(F)(F)F)cc1NS(=O)(=O)c1cccc2nsnc12)N1CCCCC1 | 0.0631 | > 10 | –
CC(=O)Nc1ccc(C(=O)N2CCCCC2)c(NS(=O)(=O)c2cccc3nsnc23)c1 | – | > 10 | Ki ([2]; read-out: Ki): > 10 µM
O=C(c1ccc(Cl)cc1NS(=O)(=O)c1cccc2nsnc12)N1CCC(CO)CC1 | 1.26 | > 10 | –
O=C(c1ccc(Cl)cc1NS(=O)(=O)c1cccc2nsnc12)N1CCc2ccccc2C1 | 1 | > 10 | –
Cc1ccc2nsnc2c1S(=O)(=O)Nc1cc(Br)ccc1C(=O)N1CCCCC1 | 0.1 | > 10 | –
CN1CCN(C(=O)c2ccc(Cl)cc2NS(=O)(=O)c2cccc3nsnc23)CC1 | 2.51 | > 10 | –
CN(Cc1ccccc1)C(=O)c1ccc(Cl)cc1NS(=O)(=O)c1cccc2nsnc12 | 0.0316 | > 10 | remaining at 0.5 h [6]: 2.2%
O=C(c1ccc(Cl)cc1NS(=O)(=O)c1cccc2nsnc12)N1CCC(N2CCCCC2)CC1 | – | > 10 | Ki ([2]; read-out: Ki): > 10 µM
O=C(c1ccc(Cl)cc1NS(=O)(=O)c1cccc2nsnc12)N1CCC1 | 1.58 | > 10 | –
O=C(c1ccc(-n2cccc2)cc1NS(=O)(=O)c1cccc2nsnc12)N1CCCCC1 | 0.501 | > 10 | –
O=C(c1ccc(F)cc1NS(=O)(=O)c1cccc2nsnc12)N1CCOCC1 | 3.98 | > 10 | –

Now from value to molecule, other results behind:

Ki ([2]; read-out: Log Ki (converted)) [µM] | Ki ([4]; read-out: Ki) [µM] | SMILES | further results
– | > 10 | O=C(c1cc(Cl)c(Cl)cc1NS(=O)(=O)c1cccc2nsnc12)N1CCCCC1 | remaining at 0.5 h [5]: 8%; remaining at 0.5 h [6]: 8%
0.0631 | > 10 | O=C(c1ccc(Cl)cc1NS(=O)(=O)c1cccc2nsnc12)N1CCCCCC1 | remaining at 0.5 h [5]: 2%; remaining at 0.5 h [6]: 11%
0.0398 | > 10 | O=C(c1ccc(Cl)cc1NS(=O)(=O)c1cccc2nsnc12)N1CCCCC1 | remaining at 0.25 h [7]: 69%; remaining at 0.25 h [8]: 78%; remaining at 0.25 h [9]: 19%; remaining at 0.5 h [10]: 62%; Papp (Caco-2 [11]): 22.7 ×10⁻⁶ cm/s; Kb [12]: > 10 µM; pKb [12]: < 5; clearance [1]: 20.8 mL/min/kg; pKa [13]: 5.47; remaining at 0.25 h [14]: 78%; Papp (Caco-2 [15]): 1.8 ×10⁻⁶ cm/s; fraction unbound [16]: 0.23; remaining at 0.5 h [17]: 59%; half-life [3]: 9.6 min; remaining at 0.5 h [18]: 51%; bioavailability [19]: 42%; logD [20]: 2.1; pKb (Cavia porcellus): 8.49; remaining at 0.5 h [6]: 3.9%
1.58 | > 10 | O=C(c1ccc(Cl)cc1NS(=O)(=O)c1cccc2nonc12)N1CCCCC1 | pKa [13]: 6.18
– | > 10 | O=C(c1ccc(I)cc1NS(=O)(=O)c1cccc2nccnc12)N1CCOCC1 | clearance [1]: 6 mL/min/kg; half-life [3]: 37.2 min; half-life [21]: 90 min; bioavailability [22]: 51%; ED50 (Rattus norvegicus [23]): 0.57 mg/kg; bioavailability [19]: 55%; remaining at 0.5 h [5]: 46%; clearance [24]: 1.62 mL/min/kg; remaining at 0.5 h [6]: 60%
– | > 10 | CC1CCCCN1C(=O)c1ccc(Cl)cc1NS(=O)(=O)c1cccc2nsnc12 (stereo not given) | remaining at 0.5 h [5]: 3%; remaining at 0.5 h [6]: 14%
5.01 | > 10 | C[C@H]1COC[C@H](C)N1C(=O)c1ccc(Cl)cc1NS(=O)(=O)c1cccc2nccnc12 | –
0.631 | > 10 | C[C@@H]1COC[C@H](C)N1C(=O)c1ccc(Cl)cc1NS(=O)(=O)c1cccc2nccnc12 | –
0.0398 | > 10 | O=C(c1ccc(Br)cc1NS(=O)(=O)c1c(F)ccc2nsnc12)N1CCCCC1 | –
0.2 | > 10 | C[C@@H]1C=C[C@H](C)N1C(=O)c1ccc(Cl)cc1NS(=O)(=O)c1cccc2nsnc12 | –
1 | > 10 | O=C(c1c(Cl)cccc1NS(=O)(=O)c1cccc2nsnc12)N1CCCCC1 | –
0.0631 | > 10 | O=C(c1ccc(Cl)cc1NS(=O)(=O)c1cccc2nsnc12)N1CCC(c2ccccc2)CC1 | –
7.94 | > 10 | Nc1ccc(C(=O)N2CCCCC2)c(NS(=O)(=O)c2cccc3nsnc23)c1 | –
0.00501 | > 10 | O=C(c1ccc(I)cc1NS(=O)(=O)c1cccc2nsnc12)N1CCCCC1 | –
– | > 10 | CN(c1cc(Br)ccc1C(=O)N1CCCCC1)S(=O)(=O)c1cccc2nsnc12 | Ki ([2]; read-out: Ki): > 10 µM
0.0631 | > 10 | O=C(c1ccc(Br)cc1NS(=O)(=O)c1cccc2nccnc12)N1CCCCC1 | clearance [1]: 13.8 mL/min/kg; half-life [3]: 20.4 min; bioavailability [19]: 50%; remaining at 0.5 h [5]: 8%; remaining at 0.5 h [6]: 21%
– | > 10 | O=C(O)c1ccc(C(=O)N2CCCCC2)c(NS(=O)(=O)c2cccc3nsnc23)c1 | Ki ([2]; read-out: Ki): > 10 µM
0.126 | > 10 | O=C(c1ccc(Br)cc1NS(=O)(=O)c1cccc2nsnc12)N1CCOCC1 | –
0.01 | > 10 | O=C(c1cc(Br)c(Br)cc1NS(=O)(=O)c1cccc2nsnc12)N1CCCCC1 | –
0.1 | > 10 | Cc1ccc(S(=O)(=O)Nc2cc(Br)ccc2C(=O)N2CCCCC2)c2nsnc12 | –
1.26 | > 10 | O=C(c1ccc(NCc2ccccc2)cc1NS(=O)(=O)c1cccc2nsnc12)N1CCCCC1 | –
0.126 | > 10 | O=C(c1cc2ccccc2cc1NS(=O)(=O)c1cccc2nsnc12)N1CCCCC1 | –
– | > 10 | O=C(c1ccc(Br)cc1NS(=O)(=O)c1cccc2nsnc12)N1CCCCC1 | Kb [12]: > 10 µM; pKb [12]: < 5; clearance [1]: 11.7 mL/min/kg; concentration (Rattus norvegicus [25]): 1300 nM; ED50 (Rattus norvegicus [26]): 0.6 mg/kg/h; half-life [3]: 15.6 min; half-life [21]: 25.2 min; bioavailability [22]: 33%; bioavailability [19]: 68%; pKb (Cavia porcellus): 8.8; remaining at 0.5 h [5]: 8%; clearance [24]: 11.7 mL/min/kg; remaining at 0.5 h [6]: 15%
0.316 | > 10 | O=C(c1ccc(Cl)cc1NS(=O)(=O)c1cccc2nsnc12)N1CCOCC1 | –
